Results as given in patent US20140275257A1, “N-ACETYL CYSTEINE COMPOSITIONS IN THE TREATMENT OF SYSTEMIC LUPUS ERYTHEMATOSUS” (Foundation for the State University of New York, priority 2013, published 2014).

Experiments:
[1] = tested on: lupus T cells; test: Flow cytometry of mitochondrial transmembrane potential, mitochondrial mass, H2O2 and NO in T cells of treated SLE patients; assay type: in vivo, human
Source text: Cell viability was monitored with annexin V conjugated to fluorescein isothiocyanate (annexin V-FITC conjugate), annexin V conjugated to phycoerythrin (annexin V-PE conjugate), or annexin V conjugated to fluorochrome Cy5 (Annexin V-Cy5 conjugate) matched with emission spectra of propidium iodide (PrI) to detect Annexin V+/PrI− apoptotic cells. Mitochondrial transmembrane potential (ΔΨm) was monitored with mitochondrial potentiometric dyes such as 3,3′-dihexyloxacarbocyanine iodide ((DiOC6), using an excitation wavelength of […] and emission at 488 nm, recorded at 525 nm in the FL-1 (green fluorescence) channel); and tetramethylrhodamine, methyl ester ((TMRM), using an excitation wavelength of […], and emission at 543 nm, recorded at 567 nm in the FL-2 (yellow/orange fluorescence) channel), potential-insensitive mitochondrial dyes such as MitoTracker Green-FM (MTG, 100 nM; excitation: 490 nm, emission: 516 nm recorded in FL-1) or nonyl acridine orange (NAO, 50 nM; excitation: 490 nm, emission: 540 nm recorded in FL-1), superoxide sensing hydroethidine (HE, 1 μM) and H2O2-sensing dichlorofluorescein diacetate (DCF-DA, 1 μM), nitric oxide sensor 4-amino-5-methylamino-2′,7′-difluoroflourescein diacetate (DAF-FM, 1 μM, excitation: 495, emission: 515 nm recorded in FL-1), or cytosolic probes (Fluo-3, 1 μM, excitation: 506 nm, emission: 526 nm recorded in FL-1) and mitochondrial Ca^2+-sensitive fluorescent probes (Rhod-2, 1 μM), respectively.
All metabolic and mitochondrial sensor dyes were obtained from Invitrogen (Carlsbad, Calif.) and used as earlier described in Fernandez, D. R. et al., “Activation of mTOR controls the loss of TCR in lupus T cells through HRES-1/Rab4-regulated lysosomal degradation,” J. Immunol., 182: 2063-2073 (2009); Banki, K. et al., “Glutathione Levels and Sensitivity to Apoptosis Are Regulated by changes in Transaldolase expression,” J. Biol. Chem., 271: 32994-33001 (1996); Banki, K. et al., “Elevation of mitochondrial transmembrane potential and reactive oxygen intermediate levels are early events and occur independently from activation of caspases in Fas signaling,” J. Immunol., 162: 1466-1479 (1999); Nagy, G. et al., “T cell activation-induced mitochondrial hyperpolarization is mediated by Ca^2+- and redox-dependent production of nitric oxide,” J. Immunol., 171: 5188-5197 (2003); and Perl, A. et al., “Apoptosis and mitochondrial dysfunction in lymphocytes of patients with systemic lupus erythematosus,” In: Perl, A., editor. Autoimmunity: Methods and Protocol. 1 ed. Totowa, N.J.: Humana; 2004 p. 87-114, the entire disclosures of each of which are incorporated by reference herein.
NO production (FIG. 3D: DAF-FM fluorescence), and mitochondrial mass were measured in T cell subsets following CD3/CD28 stimulation for 16 h (FIG. 3E: NAO fluorescence). FIG. 3F: Spontaneous apoptosis rate was enumerated by the percentage of Ann V+/PrI− T cells after culture for 16 h. FIG. 3G: Activation-induced apoptosis was assessed following CD3/CD28 co-stimulation for 16 h. Visits: visit 1, before 1st NAC dose; visit 2, after 1-month treatment; visit 3, after 2-month treatment; visit 4, after 3-month treatment; visit 5, after 1-month washout.

[2] = tested on: SLE patients; test: SLE Disease Activity Index (SLEDAI) in NAC pilot study; assay type: in vivo, human
Source text: SLEDAI offers an assessment tool for assessing disease activity in SLE. Twenty-four features that are attributed to lupus are listed, with a weighted score given to any one that is present. The more serious manifestations (such as renal, neurologic, and vasculitis) are weighted more than others (such as cutaneous manifestations). The maximum possible score is 105. (Lam, G. K. W. and Petri, M., “Assessment of systemic lupus erthematosus,” Clin. Exp. Rheumatol., 23 (Supp. 39): S120-S132 (2005)).
A complete physical examination of the cardiovascular, respiratory, gastrointestinal, musculoskeletal, neurological systems, skin, head, neck, sinuses, nasal and oral cavities were performed at each visit. SLE disease activity was assessed by using the British Isles Lupus Assessment Group (BILAG) (Isenberg, D. A. et al., “BILAG 2004. Development and initial validation of an updated version of the British Isles Lupus Assessment Group's disease activity index for patients with systemic lupus erythematosus,” Rheumatology 44(7): 902-906 (2005)) and SLE Disease Activity Index (SLEDAI) (Bombardier, C. et al., “Derivation of the SLEDAI. A disease activity index for lupus patients,” Arth. Rheum., 35: 630-640 (1992)). The concurrent use and dosage of prednisone and other medications were documented.
Lupus disease activity was measured by SLEDAI and BILAG and fatigue was evaluated by FAC at baseline (visit 1) as well as monthly during a 3-month intervention (visits 2-4) and after a 1-month washout period (visit 5).
Overall clinical effectiveness of NAC relative to placebo was analyzed with multilevel modeling as implemented in the STATA routine XTMIXED (from StataCorp, College Station, Tex.), with the three nested levels being drug group, subject within drug group and study visit within subject. All models included fixed effects for drug group, study visit and the drug group by study visit interaction along with random intercepts at each design level. […] The reduction in lupus disease activity SLEDAI scores was greater for the NAC than placebo group, as indicated by a significant visit by drug interaction (z=−2.14, p=0.033). The reduction in BILAG scores was also greater for NAC than placebo group. The overall effect was statistically significant as indicated by a significant visit by drug interaction (z=−2.62, p=0.009). Two tailed paired t-test was used to assess the effects of placebo and of each and all NAC doses on clinical indices and biomarkers recorded on visits 2-5 relative to visit 1; p<0.05 was considered significant. Patients and controls were compared with two-tailed unpaired t-test.

[3] = Double Negative (DN) T cells after 3-month NAC treatment, declined after washout

For `CC(=O)N[C@@H](CS)C(=O)O` [NAC, N-acetyl-L-cysteine], the Mitochondrial mass ([1]; DN T cells following CD3/CD28 co-stimulation) was “robustly increased”, the H2O2 levels [1, 3] was “increased” and the Mitochondrial mass [1, 3] was “increased”. The “production of NO” value ([1]; after 3 months, p=0.002) was 1.61±0.17 fold, the “Δψm (mitochondrial transmembrane potential)” value ([1]; all T cells, p=0.0001) was “increased” and the “patients with significant improvement (SLEDAI)” value ([2]; Dose 1 group, placebo 2 of 9) was 3 of 9. For the same molecule, the “patients with significant improvement (SLEDAI)” value ([2]; Dose 2 group, placebo 2 of 9) was 4 of 9, the “patients with significant improvement (SLEDAI)” value ([2]; Dose 3 group, improvements of SLEDAI of 3 or more, p=0.0406 relative to placebo) was 5 of 6 and the “effect on SLE disease activity, SLEDAI” value ([2]; NAC dose 1 (1.2 g/day)) was “did not influence”. The SLEDAI ([2]; NAC doses 2 and 3 combined, visit 2 (1 month), baseline 5.78, p=0.0007) was 3.6, the SLEDAI ([2]; NAC doses 2 and 3 combined, visit 3 (2 months), baseline 5.78, p=0.0009) was 4.0 and the SLEDAI ([2]; NAC doses 2 and 3 combined, visit 4 (3 months), baseline 5.78, p=0.0030) was 4.9. For the same molecule, the SLEDAI ([2]; NAC doses 2 and 3 combined, visit 5 (after 1 month washout), baseline 5.78, p=0.0046) was 4.4, the SLEDAI ([2]; all patients treated with NAC, after 1-month (visit 2), baseline 5.3, p=0.0013) was 3.5 and the SLEDAI ([2]; all patients treated with NAC, after 2-month treatment (visit 3), baseline 5.3, p=0.048) was 3.7. For the same molecule, the “reduction in SLEDAI relative to placebo (multilevel modeling)” value ([2]; visit by drug interaction, XTMIXED z=−2.14, p=0.033) was “greater in the NAC than placebo group”.
